From US11178868B2, “Alkynyl-substituted 3-phenylpyrrolidine-2,4-diones and use thereof as herbicides” (Bayer CropScience Aktiengesellschaft, priority 2015, dated 2021)

Key:
Format in all cases: in vivo
Alopecurus myosuroides [1] = assay: Pre-emergence herbicidal effect; conditions: scored visually after 3 weeks
Excerpt: (§1) Seeds of monocotyledonous and dicotyledonous weed plants and crop plants are laid out in wood-fibre pots in sandy loam and covered with soil. The compounds according to the invention formulated in the form of wettable powders (WP) or as emulsion concentrates (EC) are then applied as aqueous suspension or emulsion at a water application rate of 600 to 800 I/ha (converted) with the addition of 0.2% wetting agent to the surface of the covering soil. After the treatment, the pots are placed in a greenhouse and kept under good growth conditions for the trial plants. The damage to the test plants is scored visually after a test period of 3 weeks by comparison with untreated controls (herbicidal activity in percent (%): 100% activity=the plants have died, 0% activity=like control plants).

Setaria viridis [2] = assay: Pre-emergence herbicidal effect; conditions: scored visually after 3 weeks
Excerpt: as §1

Echinochloa crus-galli [3] = assay: Pre-emergence herbicidal effect; conditions: scored visually after 3 weeks
Excerpt: as §1

Avena fatua [4] = assay: Pre-emergence herbicidal effect; conditions: scored visually after 3 weeks
Excerpt: as §1

Lolium multiflorum [5] = assay: Pre-emergence herbicidal effect; conditions: scored visually after 3 weeks
Excerpt: as §1

Echinochloa crus-galli [6] = assay: Post-emergence herbicidal effect; conditions: assessed visually after about 3 weeks
Procedure: (§2) Seeds of monocotyledonous and dicotyledonous weed and crop plants are laid out in sandy loam in wood-fibre pots, covered with soil and cultivated in a greenhouse under good growth conditions. 2 to 3 weeks after sowing, the test plants are treated at the one-leaf stage. The compounds according to the invention, formulated in the form of wettable powders (WP) or as emulsion concentrates (EC), are then sprayed as aqueous suspension or emulsion at a water application rate of 600 to 800 I/ha (converted) with the addition of 0.2% of wetting agent onto the green parts of the plants. After the test plants have been left to stand in the greenhouse under optimal growth conditions for about 3 weeks, the action of the preparations is assessed visually in comparison to untreated controls (herbicidal action in percent (%): 100% activity=the plants have died, 0% activity=like control plants).

Alopecurus myosuroides [7] = assay: Post-emergence herbicidal effect; conditions: assessed visually after about 3 weeks
Procedure: as §2

Setaria viridis [8] = assay: Post-emergence herbicidal effect; conditions: assessed visually after about 3 weeks
Procedure: as §2

Lolium multiflorum [9] = assay: Post-emergence herbicidal effect; conditions: assessed visually after about 3 weeks
Procedure: as §2

Amaranthus retroflexus = assay: Post-emergence herbicidal effect; conditions: 80 g a.i./ha, assessed visually after about 3 weeks
Procedure: as §2

Avena fatua [10] = assay: Post-emergence herbicidal effect; conditions: assessed visually after about 3 weeks
Procedure: as §2

| Compound | Herbicidal effect against [%] ALOMY (Alopecurus myosuroides [1]; 80 g a.i./ha) | Herbicidal effect against [%] ALOMY (Alopecurus myosuroides [1]; 320 g a.i./ha) | Herbicidal effect against [%] SETVI (Setaria viridis [2]; 80 g a.i./ha) | Herbicidal effect against [%] SETVI (Setaria viridis [2]; 320 g a.i./ha) | Herbicidal effect against [%] ECHCG (Echinochloa crus-galli [3]; 80 g a.i./ha) | Herbicidal effect against [%] ECHCG (Echinochloa crus-galli [3]; 320 g a.i./ha) | Herbicidal effect against [%] AVEFA (Avena fatua [4]; 80 g a.i./ha) | Herbicidal effect against [%] AVEFA (Avena fatua [4]; 320 g a.i./ha) | Herbicidal effect against [%] LOLMU (Lolium multiflorum [5]; 80 g a.i./ha) | Herbicidal effect against [%] LOLMU (Lolium multiflorum [5]; 320 g a.i./ha) | Herbicidal effect against [%] ECHCG (Echinochloa crus-galli [6]; 80 g a.i./ha) | Herbicidal effect against [%] ALOMY (Alopecurus myosuroides [7]; 20 g a.i./ha) | Herbicidal effect against [%] ALOMY (Alopecurus myosuroides [7]; 80 g a.i./ha) | Herbicidal effect against [%] SETVI (Setaria viridis [8]; 20 g a.i./ha) | Herbicidal effect against [%] SETVI (Setaria viridis [8]; 80 g a.i./ha) | Herbicidal effect against [%] ECHCG (Echinochloa crus-galli [6]; 20 g a.i./ha) | Herbicidal effect against [%] LOLMU (Lolium multiflorum [9]; 80 g a.i./ha) | Herbicidal effect against [%] AVEFA (Avena fatua [10]; 80 g a.i./ha) | Herbicidal effect against [%] LOLMU (Lolium multiflorum [9]; 20 g a.i./ha) | Herbicidal effect against [%] AVEFA (Avena fatua [10]; 20 g a.i./ha) | further results |
| --- | --- | --- | --- | --- | --- | --- | --- | --- | --- | --- | --- | --- | --- | --- | --- | --- | --- | --- | --- | --- | --- |
| CC#Cc1cc(CC)c(C2=C(OC(=O)OCC)C3(CCCC(OCC)C3)NC2=O)c(CC)c1 (single isomer, unassigned) [Example P2] | 100% | 100% | 100% | 100% | 100% | 100% | 100% | 100% | 100% | 100% | 80% | – | – | – | – | – | – | – | – | – | – |
| CC#Cc1cc(CC)c(C2=C(O)C3(CCCC(OCC)C3)NC2=O)c(CC)c1 (stereo not shown) [Example D1] | 100% | 100% | 100% | 100% | 100% | 100% | 80% | 100% | 100% | 100% | 100% | 80% | 100% | 90% | 100% | 100% | 90% | – | – | – | – |
| CC#Cc1cc(C)c(C2=C(O)C3(CCCC(OCC)C3)NC2=O)c(C)c1 (stereo not shown) [Example D2] | 100% | 100% | 100% | 100% | 100% | 100% | 80% | 100% | 100% | 100% | 100% | – | 90% | – | 90% | 90% | 100% | – | – | – | – |
| CC#Cc1cc(C)c(C2=C(O)C3(CCCC(OCCC)C3)NC2=O)c(C)c1 (stereo not shown) [Example D3, 3-[2,6-Dimethyl-4-(prop-1-yn-1-yl)phenyl]-4-hydroxy-7-propoxy-1-azaspiro[4.5]dec-3-en-2-one] | 100% | 100% | 100% | 100% | 100% | 100% | 80% | 100% | 100% | 100% | 100% | – | – | 80% | 100% | 100% | 100% | 90% | 80% | – | Herbicidal effect against [%] AMARE (Amaranthus retroflexus): 90% |
| CC#Cc1cc(CC)c(C2=C(O)C3(CCCC(OCCOC)C3)NC2=O)c(CC)c1 (stereo not shown) [Example D5] | 100% | 100% | 100% | 100% | 100% | 100% | 100% | 100% | 100% | 100% | 100% | 100% | 100% | 100% | 100% | 100% | 100% | 100% | 100% | 100% | – |
| CC#Cc1ccc(C2=C(O)C3(CCCC(OCCOC)C3)NC2=O)c(CC)c1 (stereo not shown) [Example D7] | 100% | 100% | 100% | 100% | 100% | 100% | – | 100% | 100% | 100% | 100% | 100% | 100% | 100% | 100% | 100% | 100% | 100% | 100% | 100% | – |
